Data as given in PubChem BioAssay AID248 (DTP/NCI, 2004).
Toxic doses and inconclusive results are not listed. No stated cut-off is given here; in the data, active means T/C of 150% or more; inactive means T/C below 125%.

Tested on: L1210 leukemia ip in BDF1 mice, survival T/C
Assay: NCI In Vivo Anticancer Drug Screen. Data for tumor model L1210 Leukemia (intraperitoneal) in B6D2F1 (BDF1) mice
Conditions: higher = longer survival
How it was run: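 Antitumor effect is assessed in tumor-bearing animals. Survival in the compound arm is compared with a vehicle-dosed control arm and expressed as their quotient.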

[1] = endpoint: mean survival time, dose: 100.0 mg/kg/injection, schedule: Q04DX003 (ip), vehicle: Klucel (hydroxypropylcellulose) (HPC)
[2] = endpoint: mean survival time, dose: 50.0 mg/kg/injection, schedule: Q01DX001 (ip), vehicle: saline
[3] = endpoint: mean survival time, dose: 100.0 mg/kg/injection, schedule: Q01DX001 (ip), vehicle: saline
[4] = endpoint: mean survival time, dose: 200.0 mg/kg/injection, schedule: Q01DX001 (ip), vehicle: saline
[5] = endpoint: mean survival time, dose: 100.0 mg/kg/injection, schedule: Q01DX009 (ip), vehicle: Klucel (hydroxypropylcellulose) (HPC)
[6] = endpoint: mean survival time, dose: 200.0 mg/kg/injection, schedule: Q01DX009 (ip), vehicle: Klucel (hydroxypropylcellulose) (HPC)
[7] = endpoint: mean survival time, dose: 400.0 mg/kg/injection, schedule: Q01DX009 (ip), vehicle: Klucel (hydroxypropylcellulose) (HPC)
[8] = endpoint: mean survival time, dose: 100.0 mg/kg/injection, schedule: Q04DX003 (ip), vehicle: saline
[9] = endpoint: mean survival time, dose: 200.0 mg/kg/injection, schedule: Q04DX003 (ip), vehicle: saline
[10] = endpoint: mean survival time, dose: 400.0 mg/kg/injection, schedule: Q04DX003 (ip), vehicle: saline
[11] = endpoint: mean survival time, dose: 100.0 mg/kg/injection, schedule: Q04DX003 (ip), vehicle: saline with Tween-80
[12] = endpoint: mean survival time, dose: 100.0 mg/kg/injection, schedule: Q04DX002 (ip), vehicle: saline
[13] = endpoint: mean survival time, dose: 200.0 mg/kg/injection, schedule: Q04DX002 (ip), vehicle: saline
[14] = endpoint: mean survival time, dose: 400.0 mg/kg/injection, schedule: Q04DX002 (ip), vehicle: saline

Measured: T/C

O=C(CCl)c1ccc(Oc2ccccc2)cc1
inactive: endpoint: mean survival time, dose: 20.0 mg/kg/injection, schedule: Q01DX009 (ip), vehicle: Klucel (hydroxypropylcellulose) (HPC) 103 % of control | endpoint: mean survival time, dose: 20.0 mg/kg/injection, schedule: Q04DX003 (ip), vehicle: Klucel (hydroxypropylcellulose) (HPC) 107 % of control | endpoint: mean survival time, dose: 40.0 mg/kg/injection, schedule: Q01DX009 (ip), vehicle: Klucel (hydroxypropylcellulose) (HPC) 100 % of control | endpoint: mean survival time, dose: 40.0 mg/kg/injection, schedule: Q04DX003 (ip), vehicle: Klucel (hydroxypropylcellulose) (HPC) 104 % of control | endpoint: mean survival time, dose: 80.0 mg/kg/injection, schedule: Q04DX003 (ip), vehicle: Klucel (hydroxypropylcellulose) (HPC) 105 % of control | [1] 89 % of control

CSCS(=O)C[C@H](CO)NC(=O)/C=C/c1c(C)[nH]c(=O)[nH]c1=O (stereo partly specified)
inactive: endpoint: mean survival time, dose: 0.38 mg/kg/injection, schedule: Q01DX001 (ip), vehicle: saline 105 % of control | endpoint: mean survival time, dose: 0.39 mg/kg/injection, schedule: Q04DX002 (ip), vehicle: Klucel (hydroxypropylcellulose) (HPC) 96 % of control | endpoint: mean survival time, dose: 0.75 mg/kg/injection, schedule: Q01DX001 (ip), vehicle: saline 103 % of control | endpoint: mean survival time, dose: 0.75 mg/kg/injection, schedule: Q01DX Z (ip), vehicle: carboxymethylcellulose (CMC) 86 % of control | endpoint: mean survival time, dose: 0.78 mg/kg/injection, schedule: Q04DX002 (ip), vehicle: Klucel (hydroxypropylcellulose) (HPC) 96 % of control | endpoint: mean survival time, dose: 1.1 mg/kg/injection, schedule: Q01DX001 (ip), vehicle: carboxymethylcellulose (CMC) 106 % of control | endpoint: mean survival time, dose: 1.5 mg/kg/injection, schedule: Q01DX001 (ip), vehicle: saline 116 % of control | endpoint: mean survival time, dose: 1.56 mg/kg/injection, schedule: Q04DX002 (ip), vehicle: Klucel (hydroxypropylcellulose) (HPC) 110 % of control | endpoint: mean survival time, dose: 1.7 mg/kg/injection, schedule: Q01DX001 (ip), vehicle: carboxymethylcellulose (CMC) 112 % of control | endpoint: mean survival time, dose: 2.6 mg/kg/injection, schedule: Q01DX001 (ip), vehicle: carboxymethylcellulose (CMC) 112 % of control | endpoint: mean survival time, dose: 3.0 mg/kg/injection, schedule: Q01DX001 (ip), vehicle: saline 111 % of control | endpoint: mean survival time, dose: 3.13 mg/kg/injection, schedule: Q04DX002 (ip), vehicle: Klucel (hydroxypropylcellulose) (HPC) 104 % of control | endpoint: median survival time, dose: 4.0 mg/kg/injection, schedule: Q04DX003 (ip), vehicle: saline 121 % of control

O=c1[nH]c2ncccc2c(=O)n1OS(=O)(=O)c1ccccc1
inactive: [2] 102 % of control | endpoint: mean survival time, dose: 50.0 mg/kg/injection, schedule: Q01DX009 (ip), vehicle: saline 98 % of control | [3] 96 % of control | endpoint: mean survival time, dose: 100.0 mg/kg/injection, schedule: Q01DX009 (ip), vehicle: saline 106 % of control | [4] 93 % of control | endpoint: mean survival time, dose: 200.0 mg/kg/injection, schedule: Q01DX009 (ip), vehicle: saline 98 % of control | endpoint: mean survival time, dose: 400.0 mg/kg/injection, schedule: Q01DX001 (ip), vehicle: saline 96 % of control

CC(=O)c1c(O)cc(C)c(Cl)c1C
inactive: [5] 94 % of control | [6] 100 % of control | [7] 103 % of control

Cn1cc(C(N)=O)ccc1=N
inactive: [8] 113 % of control | [9] 98 % of control | [10] 106 % of control

CC(C)(CSCCSCC(C)(C)C(=O)O)C(=O)O
inactive: [5] 94 % of control | [6] 94 % of control | [7] 91 % of control

ClCC(Cl)CN1CCCCC1 (stereo unspecified)
inactive: [11] 112 % of control

CC1CNC(=S)O1 (stereo unspecified)
inactive: endpoint: mean survival time, dose: 50.0 mg/kg/injection, schedule: Q04DX003 (ip), vehicle: saline 96 % of control | [8] 98 % of control | [9] 101 % of control | [10] 108 % of control

CCC(Br)(CC)C(=O)c1ccc(OCC(=O)O)c(Cl)c1Cl
inactive: [2] 104 % of control | [3] 96 % of control | [4] 102 % of control

CN1c2ccccc2C(C)(C)C12C=Cc1ccccc1O2 (stereo unspecified)
inactive: endpoint: mean survival time, dose: 25.0 mg/kg/injection, schedule: Q04DX002 (ip), vehicle: gum acacia 111 % of control | endpoint: mean survival time, dose: 50.0 mg/kg/injection, schedule: Q04DX002 (ip), vehicle: gum acacia 103 % of control | endpoint: mean survival time, dose: 100.0 mg/kg/injection, schedule: Q04DX002 (ip), vehicle: gum acacia 88 % of control | endpoint: mean survival time, dose: 200.0 mg/kg/injection, schedule: Q04DX002 (ip), vehicle: gum acacia 94 % of control

C=Cc1nc2ccccc2[nH]1 (tested in a mixture with another compound)
inactive: endpoint: mean survival time, dose: 5.0 mg/kg/injection, schedule: Q01DX001 (ip), vehicle: saline 95 % of control | endpoint: mean survival time, dose: 10.0 mg/kg/injection, schedule: Q01DX001 (ip), vehicle: saline 96 % of control | endpoint: mean survival time, dose: 20.0 mg/kg/injection, schedule: Q01DX001 (ip), vehicle: saline 96 % of control | endpoint: mean survival time, dose: 80.0 mg/kg/injection, schedule: Q01DX001 (ip), vehicle: saline 102 % of control

COC(CC(=O)N1Cc2cc3ccccc3nc2/C1=C/c1ccco1)OC
inactive: [11] 104 % of control | endpoint: mean survival time, dose: 200.0 mg/kg/injection, schedule: Q04DX003 (ip), vehicle: saline with Tween-80 96 % of control | endpoint: mean survival time, dose: 400.0 mg/kg/injection, schedule: Q04DX003 (ip), vehicle: saline with Tween-80 98 % of control

C=CCP(C)(=O)CC=C
inactive: [12] 102 % of control | [13] 108 % of control | [14] 94 % of control

COC(=O)c1[nH]cnc1N1CC[N+](CCCl)=N1
inactive: endpoint: mean survival time, dose: 37.5 mg/kg/injection, schedule: Q01DX009 (ip), vehicle: saline 116 % of control | endpoint: mean survival time, dose: 37.5 mg/kg/injection, schedule: Q04DX003 (ip), vehicle: saline 100 % of control | endpoint: mean survival time, dose: 75.0 mg/kg/injection, schedule: Q01DX001 (ip), vehicle: saline 98 % of control | endpoint: mean survival time, dose: 75.0 mg/kg/injection, schedule: Q01DX009 (ip), vehicle: saline 95 % of control | endpoint: mean survival time, dose: 75.0 mg/kg/injection, schedule: Q04DX003 (ip), vehicle: saline 107 % of control | endpoint: mean survival time, dose: 150.0 mg/kg/injection, schedule: Q01DX001 (ip), vehicle: saline 100 % of control | endpoint: mean survival time, dose: 150.0 mg/kg/injection, schedule: Q01DX009 (ip), vehicle: saline 103 % of control | endpoint: mean survival time, dose: 150.0 mg/kg/injection, schedule: Q04DX003 (ip), vehicle: saline 102 % of control

c1ccc(N2CN(c3ccccc3)N(c3ccccc3)CN2c2ccccc2)cc1
inactive: endpoint: mean survival time, dose: 100.0 mg/kg/injection, schedule: Q01DX001 (ip), vehicle: other 92 % of control | endpoint: mean survival time, dose: 200.0 mg/kg/injection, schedule: Q01DX001 (ip), vehicle: other 89 % of control

c1ccc(-c2cccc3c2N=C2C3=Nc3c2cccc3-c2ccccc2)cc1
inactive: [1] 96 % of control | endpoint: mean survival time, dose: 200.0 mg/kg/injection, schedule: Q04DX003 (ip), vehicle: Klucel (hydroxypropylcellulose) (HPC) 95 % of control | endpoint: mean survival time, dose: 400.0 mg/kg/injection, schedule: Q04DX003 (ip), vehicle: Klucel (hydroxypropylcellulose) (HPC) 93 % of control

COc1ccc(/C=N/NC(=O)c2ccc(N)cc2)c(OC)c1
inactive: [12] 101 % of control | [13] 108 % of control | [14] 97 % of control

NS(=O)(=O)c1ccc(N2CCCCC2)c([N+](=O)[O-])c1
inactive: endpoint: mean survival time, dose: 100.0 mg/kg/injection, schedule: Q01DX005 (ip), vehicle: other 105 % of control | endpoint: mean survival time, dose: 200.0 mg/kg/injection, schedule: Q01DX005 (ip), vehicle: other 94 % of control | endpoint: mean survival time, dose: 400.0 mg/kg/injection, schedule: Q01DX005 (ip), vehicle: other 108 % of control
